In US9776972B2, “Pyrazole derivatives as arginine methyltransferase inhibitors and uses thereof” (priority 2013, dated 2017):

target: human PRMT3 (Homo sapiens, UniProt O60678); test: PRMT3 Biochemical Assay (3H-SAM Flashplate, peptide substrate); details: single experiment or average of multiple experiments
Excerpt: S-adenosylmethionine (SAM), S-adenosylhomocysteine (SAH), bicine, Tween20, dimethylsulfoxide (DMSO), bovine skin gelatin (BSG), isopropyl-β-D-thiogalactopyranoside (IPTG), and Tris(2-carboxyethyl)phosphine hydrochloride solution (TCEP) were purchased from Sigma-Aldrich at the highest level of purity possible. ^3H-SAM was purchase from American Radiolabeled Chemicals with a specific activity of 80 Ci/mmol. 384-well streptavidin Flashplates were purchased from PerkinElmer.
Peptide containing the classic RMT substrate motif was synthesized with an N-terminal linker-affinity tag motif and a C-terminal amide cap by 21st Century Biochemicals. The peptide was purified by high-performance liquid chromatography (HPLC) to greater than 95% purity and confirmed by liquid chromatography mass spectrometry (LC-MS). The sequence was Biot-Ahx-[…]-amide (SEQ ID NO.:11).
Full-length human PRMT3 (NM_005788.3) isoform 1 transcript clone was amplified from an HEK 293 cDNA library and subcloned into pGEX-KG (GE Life Sciences). The resulting construct encodes an N-terminal GST tag and a thrombin cleavage sequence ([…] […] […] […]) (SEQ ID NO.: 12) fused directly to Cys 2 of PRMT3.
E. coli (BL21(DE3) Gold, Stratagene) made competent by the CaCl2 method were transformed with the PRMT3 construct and ampicillin selection. Protein over-expression was accomplished by growing the PRMT3 expressing E. coli clone and inducing expression with 0.3 mM IPTG at 16° C. The culture was grown for 12 hours, harvested by centrifugation, and stored at −80° C. for purification.
GST-tagged PRMT3 was eluted with 50 mM Tris, 2 mM glutathione, pH 7.1 and 50 mM Tris, 20 mM glutathione, pH 7.1. Pooled fractions were dialysed in 20 mM Tris, 50 mM NaCl, 5% glycerol, 1 mM EDTA, 1 mM DTT, pH7.5 (Buffer B) and applied to a Q Sepharose Fast Flow column. GST-tagged PRMT3 was eluted by 500 mM NaCl in buffer B. Pooled fractions were dialyzed in 25 mM phosphate buffer, 100 mM NaCl, 5% glycerol, 2 mM DTT, pH 6.8 (Buffer C) and loaded on to a ceramic hydroxyapatite column. GST-tagged PRMT3 eluted with 25-400 mM phosphate in buffer C. Protein was concentrated and buffer was exchanged to 20 mM Tris, 150 mM NaCl, 5% glycerol, 5 mM β-mercaptoethanol, pH7.8 by ultrafiltration. The purity of recovered protein was 70%.
General Procedure for PRMT3 Enzyme Assays on Peptide Substrates.
The assays were all performed in a buffer consisting of 20 mM Bicine (pH=7.6), 1 mM TCEP, 0.005% BSG, and 0.002% Tween 20, prepared on the day of use. Compounds in 100% DMSO (1 ul) were spotted into a polypropylene 384-well V-bottom plates (Greiner) using a Platemate Plus outfitted with a 384-channel head (Thermo Scientific). DMSO (1 ul) was added to Columns 11, 12, 23, 24, rows A-H for the maximum signal control and 1 ul of SAH, a known product and inhibitor of PRMT3, was added to columns 11, 12, 23, 24, rows I-P for the minimum signal control. A cocktail (40 ul) containing the PRMT3 enzyme was added by Multidrop Combi (Thermo-Fisher). The compounds were allowed to incubate with PRMT3 for 30 min at room temperature, then a cocktail (10 ul) containing SAM and peptide was added to initiate the reaction (final volume=51 ul). The final concentrations of the components were as follows: PRMT3 was 0.5 nM, ^3H-SAM was 100 nM, non-radiolabeled SAM was 1.8 uM, peptide was 330 nM, SAH in the minimum signal control wells was 1 mM, and the DMSO concentration was 2%. The assays were stopped by the addition of potassium chloride (10 ul) to a final concentration of 100 mM. 50 ul of the reaction in the 384-well polypropylene plate was then transferred to a 384-well Flashplate and the biotinylated peptides were allowed to bind to the streptavidin surface for at least 1 hour before being washed once with 0.1% Tween20 in a Biotek ELx405 plate washer. […]

human PRMT3, sequence (O60678 with tags, fused parts or gaps): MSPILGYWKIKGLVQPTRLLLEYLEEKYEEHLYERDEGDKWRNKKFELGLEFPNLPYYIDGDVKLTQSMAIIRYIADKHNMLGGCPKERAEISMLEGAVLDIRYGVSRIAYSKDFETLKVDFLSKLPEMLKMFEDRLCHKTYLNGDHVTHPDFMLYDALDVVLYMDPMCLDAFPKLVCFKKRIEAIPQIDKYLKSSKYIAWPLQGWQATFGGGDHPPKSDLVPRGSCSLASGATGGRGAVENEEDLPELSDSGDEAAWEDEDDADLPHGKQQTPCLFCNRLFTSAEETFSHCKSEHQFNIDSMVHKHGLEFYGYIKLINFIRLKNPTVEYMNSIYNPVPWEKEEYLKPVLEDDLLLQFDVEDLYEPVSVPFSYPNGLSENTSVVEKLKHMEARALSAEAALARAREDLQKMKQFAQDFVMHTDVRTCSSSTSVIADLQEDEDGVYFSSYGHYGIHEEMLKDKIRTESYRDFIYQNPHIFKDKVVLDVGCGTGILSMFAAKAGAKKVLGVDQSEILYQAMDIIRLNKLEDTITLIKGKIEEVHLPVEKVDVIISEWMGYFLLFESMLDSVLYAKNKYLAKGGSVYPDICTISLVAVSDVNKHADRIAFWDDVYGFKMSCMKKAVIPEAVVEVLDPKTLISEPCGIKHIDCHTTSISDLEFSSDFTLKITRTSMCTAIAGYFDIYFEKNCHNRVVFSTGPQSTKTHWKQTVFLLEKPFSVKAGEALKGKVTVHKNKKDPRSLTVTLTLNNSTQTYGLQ

SMILES	IC50
COCCn1ncc(CN(C)CCN)c1-c1ccc(F)cc1 [Compound 6]	> 50 µM
CCn1ncc(CN(C)CCNC)c1-c1ccc(F)cc1 [Compound 7]	26 µM
CCn1cc(CN(C)CCNC)c(-c2ccc(F)cc2)n1 [Compound 8]	> 50 µM
CN(CCN)Cc1c[nH]nc1-c1ccc(OCC(F)(F)F)cc1 [Compound 96]	3.14 µM
CC(C)Oc1ccc(-c2n[nH]cc2CN(C)CCN)cc1F [Compound 97]	3.5 µM
CN(CCN)Cc1c[nH]nc1-c1ccc(C2CCOCC2)cc1 [Compound 98]	0.684 µM
CN(CCN)Cc1n[nH]cc1-c1ccc(C#N)cc1 [Compound 100]	7.26 µM
CN(CCN)Cc1n[nH]cc1-c1ccc(Cl)cc1 [Compound 102]	6.16 µM
CN(CCN)Cc1n[nH]cc1-c1ccc(OC(F)(F)F)cc1 [Compound 105]	9.83 µM
COc1ccc(-c2n[nH]cc2CN(C)CCN)c(F)c1 [Compound 107]	8 µM
Cc1ccc(-c2n[nH]cc2CN(C)CCN)c(F)c1 [Compound 108]	9.91 µM
Cc1cc(C#N)ccc1-c1n[nH]cc1CN(C)CCN [Compound 110]	7.21 µM
CN(CCN)Cc1c[nH]nc1-c1cc(F)cc(F)c1 [Compound 111]	5.39 µM
CC(=O)c1cccc(-c2n[nH]cc2CN(C)CCN)c1 [Compound 112]	3.68 µM
CN(CCN)Cc1c[nH]nc1-c1ccc(OC2CC2)cc1 [Compound 114]	3.2 µM
CC(O)c1ccc(-c2n[nH]cc2CN(C)CCN)cc1 (centres unmarked) [Compound 115]	8.32 µM
CN(CCN)Cc1c[nH]nc1-c1ccc(C2CC2)cc1 [Compound 116]	2.78 µM
CN(CCN)Cc1c[nH]nc1-c1ccc(C(F)(F)F)c(Cl)c1 [Compound 117]	2.3 µM
CN(CCN)Cc1c[nH]nc1-c1ccc(Cl)c(F)c1 [Compound 118]	1.04 µM

SMILES	IC50
CN(CCN)Cc1n[nH]cc1-c1ccc(OC2CC2)cc1 [Compound 119]	9.6 µM
CN(CCN)Cc1c[nH]nc1-c1cc(F)cc(Cl)c1 [Compound 121]	2.88 µM
CN(CCN)Cc1c[nH]nc1-c1cccc(Cl)c1 [Compound 122]	5.01 µM
CN(CCN)Cc1c[nH]nc1-c1cccc(Cl)c1F [Compound 123]	3.92 µM
CN(CCN)Cc1c[nH]nc1-c1ccc(F)c(Cl)c1 [Compound 124]	2.22 µM
COc1ccc(-c2n[nH]cc2CN(C)CCN)cc1Cl [Compound 125]	4.32 µM
Cc1ccc(-c2n[nH]cc2CN(C)CCN)cc1Cl [Compound 126]	2.55 µM
COc1cc(Cl)cc(-c2n[nH]cc2CN(C)CCN)c1 [Compound 127]	5.65 µM
Cc1c(F)cccc1-c1n[nH]cc1CN(C)CCN [Compound 129]	9.91 µM
COc1cccc(-c2n[nH]cc2CN(C)CCN)c1 [Compound 130]	6.46 µM
Cc1cccc(-c2n[nH]cc2CN(C)CCN)c1 [Compound 131]	3.57 µM
CN(CCN)Cc1c[nH]nc1-c1ccc(Cl)cc1F [Compound 132]	3.98 µM
Cc1cc(Cl)ccc1-c1n[nH]cc1CN(C)CCN [Compound 133]	4.1 µM
COc1ccc(-c2n[nH]cc2CN(C)CCN)cc1F [Compound 134]	5.44 µM
CN(CCN)Cc1c[nH]nc1-c1cc(Cl)cc(Cl)c1 [Compound 137]	7.58 µM
CN(CCN)Cc1c[nH]nc1-c1ccccc1C#N [Compound 140]	5.21 µM
CN(CCN)Cc1c[nH]nc1-c1ccc(C(F)(F)F)c(F)c1 [Compound 141]	3.47 µM
COc1cc(-c2n[nH]cc2CN(C)CCN)ccc1F [Compound 142]	4.83 µM
CCN(CC)C(=O)c1ccc(-c2n[nH]cc2CN(C)CCN)cc1 [Compound 143]	8.37 µM
